Assay [1] addresses T1, human leukocyte elastase (HLE) (Homo sapiens, UniProt P08246).
T1 construct: purchased Elastin products, Missouri, U.S.A
T1 sequence (P08246 30-267): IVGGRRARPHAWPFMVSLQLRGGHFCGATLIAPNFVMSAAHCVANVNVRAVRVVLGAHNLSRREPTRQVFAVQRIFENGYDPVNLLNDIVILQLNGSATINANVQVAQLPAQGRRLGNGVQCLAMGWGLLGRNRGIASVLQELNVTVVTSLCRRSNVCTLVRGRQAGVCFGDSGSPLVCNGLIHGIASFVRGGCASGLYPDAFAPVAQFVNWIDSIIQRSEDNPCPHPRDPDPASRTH
The assay is described as follows: Human leukocyte elastase (HLE) inhibition (MeO-Suc-Ala-Ala-Pro-Val-pNA hydrolysis, absorbance at 410 nm). The conditions noted are these: Table I; pH 7.6, 30° C., 10 min pre-incubation, 10% (v/v) DMSO. In kind it is biochemical. As to the method: Determining HLE Inhibitory Activity
Human leukocyte elastase (HLE) obtained from Elastin products, Missouri, U.S.A., is dissolved in 0.05M sodium acetate containing 0.4M sodium chloride (pH 5.3) and stored at -20° C. Small aliquots of these stock solutions (1 μm) are used in the HLE assays.
Buffer: 0.01M Na, K-Phosphate, 0.5M NaCl (pH 7.6)
Substrate: 0,014M Meo-Suc-Ala-Ala-Pro-Val-pNA in DMSO
Inhibitor: various concentrations in DMSO
Enzyme: stock solution noted above
The stock solution of enzyme was equilibrated to 30° C. A cuvette containing buffer and inhibitor was equilibrated to 30° C. 10 μL of enzyme solution giving a rate of 0.04-0.05 AU/min in the absence of inhibitor, was mixed into the buffer/inhibitor solution and this mixture was incubated at 30° C. for 10 minutes. After this pre-incubation substrate was added to give a final concentration of […] and a final DMSO concentration of 10% (v/v). The rate of product formation, proportional to the change in absorbance at 410 nm, was monitored for two minutes following the addition of substrate. For a typical IC50 plot the rate was determined at 5-8 inhibitor concentrations (in duplicate) spanning 10-80% inhibition (in most cases). In most cases the data could be fit by linear least-squares and the IC50 determined from this plot.

Another assay deals with T2, human plasma thrombin (Homo sapiens, UniProt P00734).
T2 construct: purchased Boehringer, Montreal, Canada
The assay is described as follows: Inhibition of thrombin (Chromozym TH spectrophotometric end-point assay, 410 nm). In kind it is biochemical. Particulars: Table II, pH 8.6, room temperature, 10 min pre-incubation, 30 min incubation. The method, then:
Determining the Inhibition of Thrombin
Lyophilized human plasma thrombin obtained from Boehringer, Montreal, Canada was dissolved in 0.5M Na, K-phosphate buffer (pH 7.0) and stored at +4° C.
Substrate: 0.5 mM Chromozym TH (tosyl-glycyl-prolylarginine-4-nitroanilide acetate) in DMSO
Inhibitor: 10 μM dissolved in DMSO
Temperature: room temperature (approx.).
A single inhibitor concentration (10 μM) was tested using a spectrophotometric end-point assay (1 ml final volume). Enzyme activity was monitored by formation of a product that absorbed light at 410 nm and an enzyme concentration which gave a rate of 0.01-0.02 AU/min was used. Enzyme and inhibitor were pre-incubated for 10 min in the final amounts of buffer and DMSO. The reaction was then started by the addition of substrate. After 30 min incubation the reaction was terminated by the addition of 10% SDS (0.1 ml) and the absorbance measured. Enzyme blanks were run concurrently to account for any background absorbance by the compound. Inhibition was calculated by the net A410 in the presence of inhibitor compared to that in the absence of inhibitor (DMSO controls).

pIC50: −log10 of the molar value.

`CO[C@H]1C(=O)N2C(C(=O)OC(C)(C)C)=C(COC(C)=O)/C(=C/c3cn(C)nn3)S(=O)(=O)[C@H]12` gave a negative-log IC50 (pIC50) in assay [1] of 8.11.
On the same count and under the same terms, then `CO[C@H]1C(=O)N2C(C(=O)OC(C)(C)C)=C(COC(C)=O)/C(=C\c3cn(C)nn3)S(=O)(=O)[C@H]12`, with 8.04.
The same measure, in the same setting: in the case of `CO[C@H]1C(=O)N2C(C(=O)OC(C)(C)C)=C(COC(C)=O)/C(=C\c3cccnc3)S(=O)(=O)[C@H]12` it was 8.14; in that of `CO[C@H]1C(=O)N2C(C(=O)OC(C)(C)C)=C(COC(C)=O)/C(=C/c3cccnc3)S(=O)(=O)[C@H]12`, 8.14.
Still for that read-out and setting: in the case of `CO[C@H]1C(=O)N2C(C(=O)OC(C)(C)C)=C(C)/C(=C/c3cccnc3)S(=O)(=O)[C@H]12` it was 7.46; in that of `CO[C@H]1C(=O)N2C(C(=O)OC(C)(C)C)=C(COC(C)=O)/C(=C/c3ccsc3)S(=O)(=O)[C@H]12`, 8.19; in that of `CO[C@H]1C(=O)N2C(C(=O)OC(C)(C)C)=C(C)/C(=C\c3cn(C)nn3)S(=O)(=O)[C@H]12`, 7.00.
As for `CO[C@H]1C(=O)N2C(C(=O)OC(C)(C)C)=C(C)/C(=C/c3cn(C)nn3)S(=O)(=O)[C@H]12`, the negative-log IC50 (pIC50) in assay [1] was 7.12.
For the compound `CO[C@H]1C(=O)N2C(C(=O)OC(C)(C)C)=C(COC(C)=O)/C(=C/c3ccccc3F)S(=O)(=O)[C@H]12` [drawing 21], the negative logarithm of the IC50 (pIC50) in assay [1] was 8.24.
`CO[C@H]1C(=O)N2C(C(=O)OC(C)(C)C)=C(COC(C)=O)/C(=C\c3ccccc3F)S(=O)(=O)[C@H]12` [drawing 22] showed a negative-log IC50 (pIC50) in assay [1] of 8.22.
For the compound `CO[C@H]1C(=O)N2C(C(=O)OC(C)(C)C)=C(COC(C)=O)/C(=C\c3ccco3)S(=O)(=O)[C@H]12` [drawing 25], the negative-log IC50 (pIC50) in assay [1] is 7.66.
`CO[C@H]1C(=O)N2C(C(=O)OC(C)(C)C)=C(COC(C)=O)/C(=C\c3ccsc3)S(=O)(=O)[C@H]12` [drawing 29] gave a pIC50 in assay [1] of 8.19.
Take `CO[C@H]1C(=O)N2C(C(=O)OC(C)(C)C)=C(COC(C)=O)/C(=C\c3ccco3)S(=O)(=O)[C@H]12` [drawing 34]: 10 µM produced 94.7% inhibition against human plasma thrombin.
On the same count and under the same terms, in the case of `CO[C@H]1C(=O)N2C(C(=O)OC(C)(C)C)=C(COC(C)=O)/C(=C\c3ccsc3)S(=O)(=O)[C@H]12` [drawing 35] it was 98.9%.
On to `CO[C@H]1C(=O)N2C(C(=O)OC(C)(C)C)=C(COC(C)=O)/C(=C/c3ccccc3F)S(=O)(=O)[C@H]12` [drawing 36], for which the inhibition at 10 µM on human plasma thrombin amounted to 96.8%.
Regarding `CO[C@H]1C(=O)N2C(C(=O)OC(C)(C)C)=C(COC(C)=O)/C(=C\c3ccccc3F)S(=O)(=O)[C@H]12` [drawing 37], the inhibition at 10 µM on human plasma thrombin is 98.5%.
